Measurements from ChEMBL document CHEMBL4033613, “Rearranged Terpenoids from the Marine Sponge Darwinella cf. oxeata and Its Predator, the Nudibranch Felimida grahami” (J Nat Prod, 2017).
pIC50: −log10 of the molar value.

Experiments:
[1] = system: Trypanosoma cruzi; assay: Antitrypanosomal activity against Trypanosoma cruzi intracellular amastigotes; format: functional, cell-based
[2] = system: Trypanosoma cruzi; assay: Antitrypanosomal activity against Trypanosoma cruzi trypomastigotes; format: functional
[3] = Cytotoxicity against mammalian NCTC cells; format: functional; conditions: Mammalia
[4] = Trypanosoma cruzi, read-out: IC50

IC50 [1]	IC50 [2]	pIC50 [1, 4]	pIC50 [2, 4]	SMILES	CC50 [3] [µM]
Not Active	Not Active			C[C@@H](C(=O)O)c1c([C@@]2(C)CCCC(C)(C)C2)ccc2c1CN(CC(=O)O)C2=O	
Not Active	Not Active			C[C@@H](C(=O)O)c1c([C@@]2(C)CCCC(C)(C)C2)ccc2c1CN(C)C2=O	
		4.70	4.54	COC(=O)[C@H](C)c1c([C@@]2(C)CCCC(C)(C)C2)ccc2c1C(=O)OC2	54
